{
  "source": "patent US20200110072A1",
  "about": "“IMAGING METHODS TO ASSESS THE EFFICACY OF ANTICANCER DRUGS IN VITRO USING SPONTANEOUSLY-FORMING SPHEROIDS” (ROWAN UNIVERSITY, priority 2016, published 2020)",
  "key": {"spheroids^MARY-X [1]": {"tested_on": "spheroids^MARY-X", "assay": "Spheroids^MARY-X drug screen: bright-field image analysis of spheroid dissolution (dissolution indices)", "format": "cell-based, human", "conditions": "for Response (deviation from well-circumscribed spheroid edge / spheroid dissolution): increasing doses, bright-field images", "description": "In particular, the invention provides novel methods for determining drug response and calculating drug potency. In drug screens according to the invention spheroids or spheroids^MARY-X are seeded in multi-well plates, treated with vehicle only (control) and increasing doses of one or more drugs of interest. Following a 24-hr treatment period each well undergoes analysis to assess dissolution of the spheroids^MARY-X (see FIGS. 4A and 4B).\nIn exemplary embodiments the dissolution index is determined by applying an image analysis program on ImageJ that measures the circularity of an object's area and perimeter where ‘1’ signifies a perfect circle (i.e. intact spheroid) and numbers approaching ‘0’ signify loss of circularity (i.e. dissolute spheroid). Note that ‘0’ signifies a straight line and can never be achieved in image analysis of spheroids given the innate circularity of individual cells (see FIG. 4A). The induction of apoptosis correlates with the loss of well-circumscribed edges of the usually tight, compact spheroids, i.e. dissolution is consistent with cell death of the spheroid/embolus.\nSpheroids^MARY-X Dissolution Indices: The spheroid dissolution index was determined by applying an image analysis program on ImageJ that measures the circularity of an object's area and perimeter where ‘1’ signifies a perfect circle (i.e. intact spheroid) and numbers approaching ‘0’ signify loss of circularity (i.e. dissolute spheroid). Note that ‘0’ signifies a straight line and can never be achieved in image analysis of spheroids given the innate circularity of individual cells.\nDrug Screen: The 40-100 μm spheroids were distributed in equal number (˜30-50 spheroids/well) to a multi-well plate. The spheroids^MARY-X was treated with vehicle only (DMSO) and increasing doses of drug of interest in each 24-well plate. Following 24 hr treatment periods each well was imaged and analyzed with ImageJ for measurement of dissolution of the spheroids^MARY-X. The induction of apoptosis is correlated with the loss of the well circumscribed edges of the usually tight, compact spheroids^MARY-X i.e. dissolution is consistent with cell death of the spheroid/embolus."}, "spheroids^MARY-X [2]": {"tested_on": "spheroids^MARY-X", "assay": "Spheroids^MARY-X dual-fluorescence viability assay (acridine orange / propidium iodide, Cellometer K2)", "format": "cell-based, human", "conditions": "24-hour treatment; for Response in dual fluorescence viability assay: AO/PI staining; for IC50: Homo sapiens, AO/PI, read-out: IC50 from dose-response curve, dual fluorescence viability assay", "description": "Spheroids^MARY-X Viability Assay: Dual-fluorescent assays were performed on a Cellometer K2 (Nexcelom Biosciences, Lawrence, Mass.) using the viability stains, acridine orange and propium iodide.\nDissolution indices vs. standard viability assay: In an effort to validate response data acquired by image analysis (i.e. dissolution indices) an alternate method, traditionally used to determine and quantify cell viability, and was performed on a replicate drug screen. This drug screen reproduced drug dose parameters of paclitaxel (PTX), gambogic acid (GA) and MAD28. Viability was measured by dual fluorescence analysis of propidium iodide (PI) and acridine orange (AO). Following the 24-hour treatment period, spheroids^MARY-X were analyzed using the Cellometer K2 in the dual-fluorescence viability assay. The nuclear stains AO and PI were added to the control (vehicle only) and treated spheroids^MARY-X, where AO stains both live and dead (green) cells and PI stains only dead (orange) cells with compromised membranes. Fluorescent images presented here are one of eight random fields captured for the viability analyses."}, "[3]": {"tested_on": "triple-negative breast cancer 2-D culture models", "conditions": "preclinical analysis; cited from earlier work"}},
  "note": "Entries after “also recorded” stand apart in the source; their conditions may differ.",
  "data": [
    {"smiles": "CC(C)C[C@H](NC(=O)[C@H](Cc1ccccc1)NC(=O)c1cnccn1)B(O)O", "note": "[Bortezomib, bortezomib]", "values": [
      {"measurement": "Response (deviation from well-circumscribed spheroid edge / spheroid dissolution)", "setting": "spheroids^MARY-X [1]; 24-hour treatment", "result": "Low - Moderate"},
      {"measurement": "Response (deviation from well-circumscribed spheroid edge / spheroid dissolution)", "setting": "spheroids^MARY-X [1]; 24-hour treatment, listed as bortexomib", "result": "Low to moderate"},
      {"measurement": "Response (deviation from well-circumscribed spheroid edge / spheroid dissolution)", "setting": "spheroids^MARY-X [1]; 24-hour treatment, listed as bortezomab", "result": "slight response"},
      {"measurement": "Response (deviation from well-circumscribed spheroid edge / spheroid dissolution)", "setting": "spheroids^MARY-X [1]; 24-hour treatment, listed as bortezomib", "result": "slight response; also recorded: low response"}
    ]},
    {"smiles": "N.N.[Cl][Pt][Cl]", "note": "[Cisplatin, cisplatin]", "values": [
      {"measurement": "Response (deviation from well-circumscribed spheroid edge / spheroid dissolution)", "setting": "spheroids^MARY-X [1]; 24-hour treatment", "result": "No"},
      {"measurement": "Response (deviation from well-circumscribed spheroid edge / spheroid dissolution)", "setting": "spheroids^MARY-X [1]; 24-hour treatment, listed as cisplatin", "result": "no drug response"}
    ]},
    {"smiles": "COc1cccc2c1C(=O)c1c(O)c3c(c(O)c1C2=O)C[C@@](O)(C(=O)CO)C[C@@H]3O[C@H]1C[C@H](N)[C@H](O)[C@H](C)O1", "note": "[Doxorubicin, doxorubicin]", "values": [
      {"measurement": "Response (deviation from well-circumscribed spheroid edge / spheroid dissolution)", "setting": "spheroids^MARY-X [1]; 24-hour treatment", "result": "mixed response"},
      {"measurement": "Response (deviation from well-circumscribed spheroid edge / spheroid dissolution)", "setting": "spheroids^MARY-X [1]; 24-hour treatment, listed as Doxorubicin (DOX)", "result": "Moderate - Complete"}
    ]},
    {"smiles": "CC(C)=CCC[C@]1(C)C=Cc2c(O)c3c(c(CC=C(C)C)c2O1)O[C@]12C(=C[C@@H]4C[C@H]1C(C)(C)O[C@@]2(C/C=C(/C)C(=O)O)C4=O)C3=O", "note": "[Gambogic acid]", "values": [
      {"measurement": "Response in dual fluorescence viability assay", "setting": "spheroids^MARY-X [2]", "result": "complete"},
      {"measurement": "Response in dual fluorescence viability assay", "setting": "spheroids^MARY-X [2]; listed as GA", "result": "complete response"},
      {"measurement": "IC50", "setting": "spheroids^MARY-X [2]", "result": 1.2, "unit": "µM"},
      {"measurement": "Response (deviation from well-circumscribed spheroid edge / spheroid dissolution)", "setting": "spheroids^MARY-X [1]; 24-hour treatment", "result": "complete"},
      {"measurement": "IC50", "setting": "spheroids^MARY-X [1]; Homo sapiens, as printed in b33 for gambogic acid, read-out: IC50, spheroidal dissolution and apoptosis", "result": 0.54, "unit": "µM"},
      {"measurement": "IC50", "setting": "spheroids^MARY-X [1]; Homo sapiens, read-out: IC50 from dissolution indices", "result": 0.54, "unit": "µM"},
      {"measurement": "Response (spheroid dissolution)", "setting": "spheroids^MARY-X [1]; at 2.5 μM concentration (MAD44: similar concentrations)", "result": "complete spheroid dissolution"}
    ]},
    {"smiles": "CS(=O)(=O)CCNCc1ccc(-c2ccc3ncnc(Nc4ccc(OCc5cccc(F)c5)c(Cl)c4)c3c2)o1", "note": "[Lapatinib, lapatinib]", "values": [
      {"measurement": "Response (deviation from well-circumscribed spheroid edge / spheroid dissolution)", "setting": "spheroids^MARY-X [1]; 24-hour treatment", "result": "Low - Moderate"},
      {"measurement": "Response (deviation from well-circumscribed spheroid edge / spheroid dissolution)", "setting": "spheroids^MARY-X [1]; 24-hour treatment, listed as lapatinib", "result": "Low to moderate; also recorded: slight response; also recorded: low response"}
    ]},
    {"smiles": "CN(Cc1cnc2nc(N)nc(N)c2n1)c1ccc(C(=O)N[C@@H](CCC(=O)O)C(=O)O)cc1", "note": "[Methotrexate, methotrexate]", "values": [
      {"measurement": "Response (deviation from well-circumscribed spheroid edge / spheroid dissolution)", "setting": "spheroids^MARY-X [1]; 24-hour treatment", "result": "no response and No"},
      {"measurement": "Response (deviation from well-circumscribed spheroid edge / spheroid dissolution)", "setting": "spheroids^MARY-X [1]; 24-hour treatment, listed as methotrexate", "result": "no drug response"}
    ]},
    {"smiles": "CC(C)NCCCn1c(Sc2cc3c(cc2I)OCO3)nc2c(N)ncnc21", "note": "[PU-H71]", "values": [
      {"measurement": "Response", "setting": "[3]", "result": "complete response"},
      {"measurement": "Response (deviation from well-circumscribed spheroid edge / spheroid dissolution)", "setting": "spheroids^MARY-X [1]; 24-hour treatment", "result": "no response"}
    ]},
    {"smiles": "CC(=O)O[C@H]1C(=O)[C@@]2(C)[C@H]([C@H](OC(=O)c3ccccc3)[C@]3(O)C[C@H](OC(=O)[C@H](O)[C@@H](NC(=O)c4ccccc4)c4ccccc4)C(C)=C1C3(C)C)[C@]1(OC(C)=O)CO[C@@H]1C[C@@H]2O", "note": "[Paclitaxel, paclitaxel]", "values": [
      {"measurement": "Response in dual fluorescence viability assay", "setting": "spheroids^MARY-X [2]", "result": "ineffective at producing a ‘complete’ response"},
      {"measurement": "Response in dual fluorescence viability assay", "setting": "spheroids^MARY-X [2]; listed as PTX", "result": "little if any activity"},
      {"measurement": "IC50", "setting": "spheroids^MARY-X [2]", "result": 5.4, "unit": "µM"},
      {"measurement": "Response (deviation from well-circumscribed spheroid edge / spheroid dissolution)", "setting": "spheroids^MARY-X [1]; 24-hour treatment", "result": "virtually ineffective"},
      {"measurement": "IC50", "setting": "spheroids^MARY-X [1]; 24-hour treatment, ImageJ circularity, read-out: IC50 from dissolution indices dose-response curve", "result": 7.79, "unit": "µM"},
      {"measurement": "IC50", "setting": "spheroids^MARY-X [1]; Homo sapiens, 24 h, 24-hour treatment, ImageJ circularity, read-out: IC50 from dissolution indices dose-response curve", "result": 7.8, "unit": "µM"},
      {"measurement": "Response", "setting": "spheroids^MARY-X [1]; at a 5.0 μM concentration", "result": "no to low"}
    ]}
  ]
}
